Experimental data as given in PubChem BioAssay AID248 (DTP/NCI, 2004).
Values joined by “and” are separate entries in the source; they are usually repeats but may differ in a detail not shown here. Equal entries are not always repeated. Inconclusive results and toxic doses are left out. Cut-off read from the data, not from the text of the source: active = T/C of 150% or more; inactive = T/C below 125%.

System: L1210 leukemia ip in BDF1 mice, survival T/C
Assay: NCI In Vivo Anticancer Drug Screen. Data for tumor model L1210 Leukemia (intraperitoneal) in B6D2F1 (BDF1) mice
Settings: endpoint: mean survival time, higher = longer survival
In short: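 Transplanted-tumor mice were given test agent; controls received vehicle only. Survival readings from the two groups were divided (treated over control).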

[1] = dose: 100.0 mg/kg/injection, schedule: Q04DX003 (ip), vehicle: saline with Tween-80
[2] = dose: 200.0 mg/kg/injection, schedule: Q04DX003 (ip), vehicle: saline with Tween-80
[3] = dose: 400.0 mg/kg/injection, schedule: Q04DX003 (ip), vehicle: saline with Tween-80
[4] = dose: 100.0 mg/kg/injection, schedule: Q01DX009 (ip), vehicle: Klucel (hydroxypropylcellulose) (HPC)
[5] = dose: 100.0 mg/kg/injection, schedule: Q04DX003 (ip), vehicle: saline
[6] = dose: 200.0 mg/kg/injection, schedule: Q04DX003 (ip), vehicle: saline
[7] = dose: 400.0 mg/kg/injection, schedule: Q04DX003 (ip), vehicle: saline
[8] = dose: 100.0 mg/kg/injection, schedule: Q01DX009 (ip), vehicle: saline with Tween-80
[9] = dose: 200.0 mg/kg/injection, schedule: Q01DX001 (ip), vehicle: carboxymethylcellulose (CMC)
[10] = dose: 400.0 mg/kg/injection, schedule: Q01DX001 (ip), vehicle: carboxymethylcellulose (CMC)
[11] = dose: 50.0 mg/kg/injection, schedule: Q01DX009 (ip), vehicle: saline with Tween-80
[12] = dose: 200.0 mg/kg/injection, schedule: Q01DX009 (ip), vehicle: saline with Tween-80
[13] = dose: 200.0 mg/kg/injection, schedule: Q01DX009 (ip), vehicle: Klucel (hydroxypropylcellulose) (HPC)
[14] = dose: 400.0 mg/kg/injection, schedule: Q01DX009 (ip), vehicle: Klucel (hydroxypropylcellulose) (HPC)

Measured: T/C

C/C=C/C(=O)Nc1cccc(OC(=O)NC(C)C)c1
inactive: [1] 95 % of control | [2] 93 % of control | [3] 87 % of control

CCN(CC)/N=N/c1nc[nH]c1C(N)=O
inactive: dose: 12.5 mg/kg/injection, schedule: Q01DX009 (ip), vehicle: water 100 % of control | dose: 25.0 mg/kg/injection, schedule: Q01DX009 (ip), vehicle: Klucel (hydroxypropylcellulose) (HPC) 117 % of control | dose: 25.0 mg/kg/injection, schedule: Q01DX009 (ip), vehicle: water 101 % of control | dose: 50.0 mg/kg/injection, schedule: Q01DX001 (ip), vehicle: water 102 % of control | dose: 50.0 mg/kg/injection, schedule: Q01DX009 (ip), vehicle: Klucel (hydroxypropylcellulose) (HPC) 111 % of control | dose: 50.0 mg/kg/injection, schedule: Q01DX009 (ip), vehicle: water 98 % of control and 104 % of control | dose: 50.0 mg/kg/injection, schedule: Q04DX003 (ip), vehicle: water 101 % of control | dose: 100.0 mg/kg/injection, schedule: Q01DX001 (ip), vehicle: Klucel (hydroxypropylcellulose) (HPC) 104 % of control | dose: 100.0 mg/kg/injection, schedule: Q01DX001 (ip), vehicle: water 103 % of control | [4] 114 % of control | dose: 100.0 mg/kg/injection, schedule: Q01DX009 (ip), vehicle: water 105 % of control and 86 % of control | dose: 100.0 mg/kg/injection, schedule: Q04DX003 (ip), vehicle: Klucel (hydroxypropylcellulose) (HPC) 102 % of control | dose: 100.0 mg/kg/injection, schedule: Q04DX003 (ip), vehicle: water 102 % of control | dose: 200.0 mg/kg/injection, schedule: Q01DX001 (ip), vehicle: Klucel (hydroxypropylcellulose) (HPC) 101 % of control | dose: 200.0 mg/kg/injection, schedule: Q01DX001 (ip), vehicle: water 100 % of control | dose: 200.0 mg/kg/injection, schedule: Q04DX003 (ip), vehicle: Klucel (hydroxypropylcellulose) (HPC) 108 % of control | dose: 200.0 mg/kg/injection, schedule: Q04DX003 (ip), vehicle: water 110 % of control | dose: 400.0 mg/kg/injection, schedule: Q01DX001 (ip), vehicle: Klucel (hydroxypropylcellulose) (HPC) 113 % of control | dose: 400.0 mg/kg/injection, schedule: Q01DX001 (ip), vehicle: water 113 % of control | dose: 400.0 mg/kg/injection, schedule: Q04DX003 (ip), vehicle: Klucel (hydroxypropylcellulose) (HPC) 119 % of control | dose: 400.0 mg/kg/injection, schedule: Q04DX003 (ip), vehicle: water 111 % of control

O=C1C2C3C=CC(CC3)C2S(=O)(=O)C2C3C=CC(CC3)C12 (configuration not stated)
inactive: dose: 25.0 mg/kg/injection, schedule: Q04DX002 (ip), vehicle: gum acacia 96 % of control | dose: 50.0 mg/kg/injection, schedule: Q04DX002 (ip), vehicle: gum acacia 104 % of control | dose: 100.0 mg/kg/injection, schedule: Q04DX002 (ip), vehicle: gum acacia 100 % of control

Cc1cc2nc(Cc3nc4cc(C)c(C)cc4[nH]3)[nH]c2cc1C
inactive: dose: 50.0 mg/kg/injection, schedule: Q01DX Z (ip), vehicle: saline 105 % of control | dose: 100.0 mg/kg/injection, schedule: Q01DX001 (ip), vehicle: saline 92 % of control | dose: 100.0 mg/kg/injection, schedule: Q01DX Z (ip), vehicle: saline 95 % of control | [5] 100 % of control | dose: 200.0 mg/kg/injection, schedule: Q01DX001 (ip), vehicle: saline 93 % of control | dose: 200.0 mg/kg/injection, schedule: Q01DX Z (ip), vehicle: saline 100 % of control | [6] 92 % of control | dose: 400.0 mg/kg/injection, schedule: Q01DX001 (ip), vehicle: saline 90 % of control | dose: 400.0 mg/kg/injection, schedule: Q01DX Z (ip), vehicle: saline 97 % of control | [7] 86 % of control

CCN(CC)C(=O)C1CN2CCc3cc(OC)c(OC)cc3C2CC1O (configuration not stated)
inactive: dose: 25.0 mg/kg/injection, schedule: Q01DX009 (ip), vehicle: saline 97 % of control | dose: 25.0 mg/kg/injection, schedule: Q04DX003 (ip), vehicle: saline 108 % of control | dose: 50.0 mg/kg/injection, schedule: Q01DX009 (ip), vehicle: saline 105 % of control | dose: 50.0 mg/kg/injection, schedule: Q04DX003 (ip), vehicle: saline 105 % of control | dose: 100.0 mg/kg/injection, schedule: Q01DX009 (ip), vehicle: saline 103 % of control | [5] 97 % of control | dose: 200.0 mg/kg/injection, schedule: Q01DX009 (ip), vehicle: saline 118 % of control | [6] 110 % of control | dose: 400.0 mg/kg/injection, schedule: Q01DX009 (ip), vehicle: saline 115 % of control | [7] 105 % of control

O=C(/C=C/c1ccccc1)NN1CCOCC1
inactive: dose: 75.0 mg/kg/injection, schedule: Q01DX009 (ip), vehicle: Klucel (hydroxypropylcellulose) (HPC) 92 % of control | dose: 150.0 mg/kg/injection, schedule: Q01DX009 (ip), vehicle: Klucel (hydroxypropylcellulose) (HPC) 108 % of control | dose: 300.0 mg/kg/injection, schedule: Q01DX009 (ip), vehicle: Klucel (hydroxypropylcellulose) (HPC) 115 % of control

O=C(Nc1ccccc1C(F)(F)F)c1cccc(C(=O)Nc2ccccc2C(F)(F)F)c1
inactive: [8] 86 % of control | [1] 87 % of control | dose: 400.0 mg/kg/injection, schedule: Q01DX009 (ip), vehicle: saline with Tween-80 88 % of control

O=c1[nH]c(-c2ccccc2)c(Br)c(=O)[nH]1
inactive: [1] 97 % of control | [2] 107 % of control | [3] 100 % of control

Nc1sc(C(=O)O)cc1[N+](=O)[O-]
inactive: [9] 92 % of control | [10] 92 % of control

O=C(OCc1ccc2c(c1)OCO2)C1CC1
inactive: dose: 100.0 mg/kg/injection, schedule: Q04DX002 (ip), vehicle: saline with Tween-80 103 % of control | dose: 400.0 mg/kg/injection, schedule: Q04DX002 (ip), vehicle: saline with Tween-80 101 % of control

CC(Cl)CN1Cc2ccccc2CCc2ccccc2C1 (configuration not stated)
inactive: dose: 25.0 mg/kg/injection, schedule: Q04DX002 (ip), vehicle: Klucel (hydroxypropylcellulose) (HPC) 101 % of control | dose: 50.0 mg/kg/injection, schedule: Q04DX002 (ip), vehicle: Klucel (hydroxypropylcellulose) (HPC) 92 % of control

CC(Cc1cc(C)nc(NC#N)n1)=Nc1ccccc1
inactive: dose: 100.0 mg/kg/injection, schedule: Q04DX002 (ip), vehicle: Klucel (hydroxypropylcellulose) (HPC) 100 % of control | dose: 200.0 mg/kg/injection, schedule: Q04DX002 (ip), vehicle: Klucel (hydroxypropylcellulose) (HPC) 92 % of control | dose: 400.0 mg/kg/injection, schedule: Q04DX002 (ip), vehicle: Klucel (hydroxypropylcellulose) (HPC) 100 % of control

CCOc1ccc(NC(=O)OC/C=C/c2ccccc2)cc1
inactive: [11] 96 % of control | [8] 93 % of control | [12] 90 % of control

Nc1c(Br)cc(Br)c2c1-c1ccccc1C2=O
inactive: dose: 100.0 mg/kg/injection, schedule: Q01DX001 (ip), vehicle: carboxymethylcellulose (CMC) 98 % of control | [9] 104 % of control | [10] 102 % of control

CCCCNC(=O)C(=O)c1ccccc1NC(C)=O
inactive: [4] 86 % of control | [13] 87 % of control | [14] 97 % of control

CN(C(=O)/C=C/c1ccc([N+](=O)[O-])cc1)c1ccc(S(=O)(=O)F)cc1
inactive: [4] 91 % of control | [13] 94 % of control | [14] 97 % of control

CC(C#N)(Cc1ccccc1)Nc1ccccc1 (configuration not stated)
inactive: [11] 102 % of control | [8] 101 % of control | [12] 96 % of control

CCCOP(=O)(OCCC)C(OC(=O)C(C)C)=C(C)C
inactive: [1] 97 % of control | [2] 94 % of control
